Laboratory results: US9469645B2, “Compounds and compositions for the treatment of parasitic diseases” (Novartis AG, priority 2009, dated 2016)
pEC50: −log10 of the molar value. Where two headings read alike, the source gives them in different places.

Tests used:
3D7 P. falciparum strain = test: parasite proliferation assay in infected red blood cells (SYBR Green I); assay type: cell-based, Plasmodium falciparum; conditions: 3D7 strain, read-out: EC50 3D7 strain
Excerpt: (§1) Compounds of the invention can be assayed to measure their capacity to inhibit proliferation of parasitemia in infected red blood cells. The proliferation is quantified by the addition of SYBR Green I (INVITROGEN)® dye which has a high affinity for double stranded DNA.
The following assay illustrates the invention without in any way limiting the scope of the invention. This parasite proliferation assay measures the increase in parasite DNA content using a DNA intercalating dye, SYBR Green®.
3D7 P. falciparum strain is grown in complete culturing media until parasitemia reaches 3% to 8% with O+ human erythrocytes. 20 μl of screening media is dispensed into 384 well assay plates. […] 10 μl of lysis buffer (saponin, triton-X, EDTA) containing a 10× solution of SYBR Green I® in RPMI media is dispensed into the plates. The plates are lidded and kept at room temperature overnight for the lysis of the infected red blood cells.

W2 strain = test: parasite proliferation assay in infected red blood cells (SYBR Green I), W2 strain; assay type: cell-based
Excerpt: as §1

[1] = Plasmodium falciparum, 3D7, Erythrocyte
[2] = Plasmodium falciparum, Erythrocyte

SMILES | pEC50 (3D7 P. falciparum strain; [1]) | pEC50 (W2 strain; Erythrocyte) | pEC50 (W2 strain; [2]) | pEC50 (3D7 P. falciparum strain) | pEC50 (W2 strain)
CNCC(=O)N1CCn2c(nc(-c3ccc(F)cc3)c2Nc2ccc(Cl)cc2)C1 [Compound 77] | 7.22 | 7.41 |  |  | 
C[C@H](C(=O)N1CCn2c(nc(-c3cccc(F)c3)c2Nc2ccc(Cl)c(F)c2)C1)c1ccccc1 [Compound 223] | 6.59 | 6.69 |  |  | 
CCC(=O)Nc1ccc(C[C@H](NC(=O)OC(C)(C)C)C(=O)N2CCn3c(nc(-c4ccc(F)cc4)c3Nc3ccc(C)cc3)C2)cc1 [Compound 185] | 6.46 | 6.87 |  |  | 
Cc1ccc(Nc2c(-c3cccnc3)nc3n2CCCC3)cc1 [Compound 737] | 5.11 |  | 5.39 |  | 
CCCC(=O)NCCCC[C@H](N)C(=O)N1CCn2c(nc(-c3ccc(F)cc3)c2Nc2ccc(C)cc2)C1 [Compound 158] | 5.12 | 5.32 |  |  | 
CC1(C)CN(C(=O)CN)Cc2nc(-c3cccc(F)c3)c(Nc3ccc(Cl)cc3)n21 [Compound 620] | 7.40 |  | 7.39 |  | 
COCCCN1C(=O)Cn2c(nc(-c3cccc(F)c3)c2Nc2ccc(F)c(C)c2)C1(C)C [Compound 691] | 7.17 |  | 7.22 |  | 
CC1(C)c2nc(-c3ccc(F)cc3)c(Nc3cccc(C#N)c3)n2CCN1C(=O)CN [Compound 653] | 8.22 |  | 8.05 |  | 
CN1CCC(N2CCN(c3c(-c4ccc(F)cc4)nc4n3CCN(C(=O)CN)C4(C)C)CC2)CC1 [Compound 673] | 5.05 |  | < 5.06 |  | 
CC(C)(C)CC(C)(C)Nc1c(-c2ccccc2C(F)(F)F)nc2ccccn12 [Compound 745] | 5.45 |  | 5.37 |  | 
O=C(CO)N1CCn2c(nc(-c3ccc(F)cc3)c2Nc2ccc(F)cc2)C1 [Example 44, 1-(2-(4-fluorophenyl)-3-(4-fluorophenylamino)-5,6-dihydroimidazo[1,2-a]pyrazin-7(8H)-yl)-2-hydroxyethanone] | 6.14 | 6.32 |  |  | 
O=C(CNc1ccccc1)N1CCn2c(nc(-c3ccc(F)cc3)c2Nc2ccc(Cl)c(F)c2)C1 [Compound 305] | 7.05 | 7.03 |  |  | 
Cc1cccc(Nc2c(-c3ccc(F)cc3)nc3n2CCN(C(=O)C(C)(C)N)C3)c1 [Compound 638] | 7.19 |  | 7.17 |  | 
CCCCN[C@H](C(=O)N1CCn2c(nc(-c3ccc(F)cc3)c2Nc2ccc(C)cc2)C1)c1ccccc1 [Compound 295] | 6.68 | 6.55 |  |  | 
C[C@@H](C(=O)N1CCn2c(nc(-c3cccc(F)c3)c2Nc2ccc(Cl)c(F)c2)C1)c1ccccc1 [Compound 222] | 6.85 | 6.99 |  |  | 
CC1(C)c2nc(-c3ccc(F)cc3)c(Sc3cccc(F)c3)n2CCN1C(=O)CN [Compound 714] | 8.15 |  | 8.40 |  | 
Cc1ccc(Nc2c(-c3ccc(F)cc3)nc3n2CCN(C(=O)C(C)c2ccc(Cl)cc2)C3)cc1 (centres unmarked) [Compound 173] | 6.85 | 6.88 |  |  | 
CC1(C)c2nc(-c3ccc(F)cc3)c(NC3CCC3)n2CCN1C(=O)CN [Compound 671] | 5.89 |  | 5.96 |  | 
CC1(C)c2nc(-c3ccc(F)cc3)c(Nc3cccc(C(F)(F)F)c3)n2CCN1C(=O)CN [Compound 652] | 7.72 |  | 7.92 |  | 
CC(C)(O)CC(=O)N1CCn2c(nc(-c3cccc(F)c3)c2Nc2ccc(F)cc2)C1 [Compound 235] | 6.27 | 6.30 |  |  | 
COc1ccc(CN2Cc3nc(-c4ccc(F)cc4)c(Nc4ccc(Cl)c(F)c4)n3C(C)(C)C2=O)cc1 [Compound 613] | 5.20 |  | 5.24 |  | 
CCCNC(=O)C[C@H](NC(=O)OC(C)(C)C)C(=O)N1CCn2c(nc(-c3cccc(F)c3)c2Nc2ccc(F)cc2)C1 [Compound 248] | 5.15 | 5.34 |  |  | 
Cc1ccc(Nc2c(-c3ccc(F)c(F)c3)nc3n2CCN(C(=O)C(C)(C)N)C3)cc1 [Compound 379] | 7.22 | 7.30 |  |  | 
CC(C)(N)C(=O)N1CCn2c(nc(-c3ccc(F)cc3)c2Nc2ccc(C#N)c(C(F)(F)F)c2)C1 [Compound 635] | 6.03 |  | 5.75 |  | 
Cc1ccc(Nc2c(-c3ccc(F)cc3)nc3n2CCN(C(=O)C(C)(C)Nc2ccccc2)C3)cc1 [Compound 374] | 6.23 | 6.61 |  |  | 

SMILES | pEC50 (3D7 P. falciparum strain; [1]) | pEC50 (W2 strain; Erythrocyte) | pEC50 (W2 strain; [2]) | pEC50 (3D7 P. falciparum strain) | pEC50 (W2 strain)
CCC(=O)Nc1ccc(C[C@H](N)C(=O)N2CCn3c(nc(-c4cccc(F)c4)c3Nc3ccc(Cl)c(F)c3)C2)cc1 [Compound 259] | 5.27 | 5.52 |  |  | 
Cc1ccc(Nc2c(-c3ccc(F)cc3)nc3n2CCN(C(=O)Cc2cc(Cl)cc(Cl)c2)C3)cc1 [Compound 230] | 6.49 | 6.59 |  |  | 
Cc1ccc(Nc2c(-c3ccc(F)cc3)nc3n2CCN(C(=O)C(C)(C)N)C3)cc1C#N [Compound 630] | 7.46 |  | 7.07 |  | 
Cc1cc(C)cc(Sc2c(-c3ccc(F)cc3)nc3n2CCN(C(=O)CN)C3(C)C)c1 [Compound 717] | 7.59 |  | 7.80 |  | 
Cc1ccc(-c2c(-c3ccc(Cl)cc3)nc3n2CCN(C(=O)C(C)(C)N)C3)cc1 [Compound 47] | 5.16 | 5.21 |  |  | 
Cc1ccc(Nc2c(-c3ccc(F)cc3)nc3n2CCN(C(=O)C2CCCNC2)C3)cc1 (centres unmarked) [Compound 93] |  |  |  | 5.78 | 5.82
Cc1ccc(Nc2c(-c3ccc(F)cc3)nc3n2CC(=O)N(CCN(C)C)C3(C)C)cc1Cl [Compound 682] | 6.91 |  | 6.95 |  | 
CC(C)(C)CC(C)(C)Nc1c(C2CCCCC2)nc2ccccn12 [Compound 738] | 5.49 |  | 5.81 |  | 
CCCNC(=O)CC[C@H](N)C(=O)N1CCn2c(nc(-c3ccc(F)cc3)c2Nc2ccc(C)cc2)C1 [Compound 188] | 6.10 | 5.96 |  |  | 
CCC(=O)N[C@H](C(=O)N1CCn2c(nc(-c3ccc(F)cc3)c2Nc2ccc(C)cc2)C1)c1ccccc1 [Compound 290] | 6.36 | 6.40 |  |  | 
Cc1cc(Nc2c(-c3cccc(F)c3)nc3n2C(C)(C)CN(C(=O)CN)C3)ccc1F [Compound 625] | 6.77 |  | 6.71 |  | 
Cc1ccc(Nc2c(-c3ccc(F)cc3)nc3n2CCN(C(=O)C(Nc2ccc(C(F)(F)F)cc2Cl)C(C)C)C3)cc1 (centres unmarked) [Compound 355] | 5.55 | 5.64 |  |  | 
Cc1ccc(Nc2c(-c3ccc(F)cc3)nc3n2CCN(C(=O)C2CCOCC2)C3)cc1 [Compound 209] | 4.93 | 5.36 |  |  | 
Cc1ccc(Nc2c(-c3ccc(F)cc3)nc3n2CCN(C(=O)C(O)c2ccc(Cl)cc2)C3)cc1 (centres unmarked) [Compound 133] | 7.30 | 7.41 |  |  | 
Cc1ccc(Nc2c(-c3ccc(F)cc3)nc3n2CCN(C(=O)[C@H](Cc2ccccc2)N(C)C)C3)cc1 [Compound 177] | 6.37 | 6.37 |  |  | 
N[C@@H](C(=O)N1CCn2c(nc(-c3ccc(F)cc3)c2Nc2ccc(F)cc2)C1)C(F)(F)F [Compound 196] | 6.49 | 6.46 |  |  | 
CCN1CCC(CC(=O)N2CCn3c(nc(-c4ccc(F)cc4)c3Nc3ccc(C)cc3)C2)CC1 [Compound 214] | 5.55 | 5.70 |  |  | 
NCC(=O)N1CCn2c(nc(-c3ccccc3)c2NC2CCCC2)C1 [Compound 7] | 4.80 | 5.11 |  |  | 
N#Cc1ccc(C[C@H](N)C(=O)N2CCn3c(nc(-c4ccc(F)cc4)c3Nc3ccc(Cl)c(F)c3)C2)cc1 [Compound 328] | 6.47 | 6.64 |  |  | 
CC(C)(N)C(=O)N1CCn2c(nc(-c3ccc(F)cc3)c2Nc2ccc(C(F)(F)F)cc2)C1 [Compound 72] | 6.02 | 6.23 |  |  | 
CC(C)(N)C(=O)N1CCn2c(nc(-c3ccc(F)cc3)c2Nc2ccc(Cl)cc2)C1 [Compound 39] | 7.70 | 7.62 |  |  | 
O=C(Cc1n[nH]c2ccccc12)N1CCn2c(nc(-c3ccc(F)cc3)c2Nc2ccc(Cl)c(F)c2)C1 [Compound 306] | 6.38 | 6.48 |  |  | 
CC(C)(C)OC(=O)N[C@@H](CC(=O)OCc1ccccc1)C(=O)N1CCn2c(nc(-c3cccc(F)c3)c2Nc2ccc(Cl)c(F)c2)C1 [Compound 236] | 5.28 | 5.69 |  |  | 
CCCNC(=O)C[C@H](NC(=O)OC(C)(C)C)C(=O)N1CCn2c(nc(-c3ccc(F)cc3)c2Nc2ccc(C)cc2)C1 [Compound 186] | 5.25 | 5.59 |  |  | 
